BigSolDB 2.1

C1N2CN3CN1CN(C2)C3
Details	solubility (mole fraction)
in acetic acid, 304.52 K	0.245
in acetic acid, 310.83 K	0.245
in acetic acid, 317.35 K	0.246
in acetic acid, 321.91 K	0.249
in acetic acid, 327.65 K	0.25
in acetic acid, 332.65 K	0.251
in acetic acid, 337.15 K	0.256
in ethanol, 288.19 K	0.0085
in ethanol, 293.49 K	0.0096
in ethanol, 298.43 K	0.0107
in ethanol, 303.4 K	0.012
in ethanol, 312.91 K	0.0148
in methanol, 299.91 K	0.0234
in methanol, 304.45 K	0.0251
in methanol, 307.85 K	0.0264
in methanol, 311.9 K	0.028
in methanol, 315.95 K	0.0293
in methanol, 319.63 K	0.0304
in methanol, 323.65 K	0.032
in methanol, 326.25 K	0.0335
in methanol, 330.85 K	0.0353
in water, 303.21 K	0.098
in water, 307.4 K	0.0959
in water, 312.18 K	0.0948
in water, 317.05 K	0.0931
in water, 321.86 K	0.0914
in water, 326.15 K	0.0894
in water, 330.45 K	0.0891
in water, 335.42 K	0.0895
in water, 340.35 K	0.0914
